Data reported in ChEMBL document CHEMBL1129715, “Synthesis and biological evaluation of hybrid molecules containing the pyrroloquinoline nucleus and DNA-minor groove binders” (1996).
Values after ≈ are worked out from the molar mass of the structure shown.

Columns and labels:
Format in all cases: functional
[1] = tested on: L1210; assay: In vitro cytotoxicity against L1210 cancer cell lines.; details: Mus musculus, read-out: TD50 (the source's name)
[2] = tested on: CHO; assay: In vitro cytotoxicity against CHO cancer cell lines.; details: Cricetulus griseus, read-out: TD50 (the source's name)
[3] = tested on: KB; assay: In vitro cytotoxicity against KB cancer cell lines.; details: Homo sapiens, read-out: TD50 (the source's name)
[4] = tested on: L1210/Adr; assay: In vitro cytotoxicity against L1210/Adr cancer cell lines.; details: Mus musculus, read-out: TD50 (the source's name)
[5] = tested on: MCF7; assay: In vitro cytotoxicity against MCF-7 cancer cell lines.; details: Homo sapiens, read-out: TD50 (the source's name)
[6] = tested on: HCT-116; assay: In vitro cytotoxicity against HCT116 cancer cell lines.; details: Homo sapiens, read-out: TD50 (the source's name)

SMILES	CC50 [1] [µg/mL]	CC50 [2] [µg/mL]	CC50 [3] [µg/mL]	CC50 [4] [µg/mL]	CC50 [5] [µg/mL]	CC50 [6] [µg/mL]
CCOC(=O)c1cc(NC(=O)c2cc(NC(=O)c3cc(NC4=CC5=NCCc6cn(C)c(c65)C4=O)cn3COC)cn2COC)cn1COC	1.3 (≈ 1.89 µM)	4.9 (≈ 7.14 µM)	1.4 (≈ 2.04 µM)	2.5 (≈ 3.64 µM)	4.7 (≈ 6.84 µM)	5.2 (≈ 7.57 µM)
COCn1cc(NC(=O)c2cc(NC3=CC4=NCCc5cn(C)c(c54)C3=O)cn2COC)cc1C(=O)NCCCN(C)C	8.2 (≈ 13.9 µM)	17.5 (≈ 29.6 µM)	1.9 (≈ 3.22 µM)	3.8 (≈ 6.43 µM)	0.5 (≈ 0.846 µM)	6.1 (≈ 10.3 µM)
CCOC(=O)c1cc(NC2=CC3=NCCc4cn(C)c(c43)C2=O)cn1COC	2 (≈ 5.23 µM)	0.7 (≈ 1.83 µM)	0.5 (≈ 1.31 µM)	1 (≈ 2.61 µM)	0.5 (≈ 1.31 µM)	0.4 (≈ 1.05 µM)
COc1cccc2c1C(=O)c1c(O)c3c(c(O)c1C2=O)C[C@@](O)(C(=O)CO)C[C@@H]3O[C@H]1C[C@H](N)[C@H](O)[C@H](C)O1 [DOXORUBICIN]	0.02 (≈ 0.0368 µM)	0.05 (≈ 0.092 µM)	0.02 (≈ 0.0368 µM)	0.3 (≈ 0.552 µM)	0.2 (≈ 0.368 µM)	0.17 (≈ 0.313 µM)
COCn1cc(NC(=O)c2cc(NC(=O)c3cc(NC4=CC5=NCCc6cn(C)c(c65)C4=O)cn3COC)cn2COC)cc1C(=O)NCCCN(C)C	3.3 (≈ 4.44 µM)	0.9 (≈ 1.21 µM)	0.4 (≈ 0.538 µM)	2.8 (≈ 3.77 µM)	0.2 (≈ 0.269 µM)	2.1 (≈ 2.83 µM)
CCOC(=O)c1cc(NC(=O)c2cc(NC3=CC4=NCCc5cn(C)c(c54)C3=O)cn2COC)cn1COC	4.9 (≈ 9.17 µM)	4.2 (≈ 7.86 µM)	2.3 (≈ 4.3 µM)	3.3 (≈ 6.17 µM)	3.3 (≈ 6.17 µM)	1.7 (≈ 3.18 µM)
COCn1cc(NC2=CC3=NCCc4cn(C)c(c43)C2=O)cc1C(=O)NCCCN(C)C	3.8 (≈ 8.67 µM)	49.2 (≈ 112 µM)	0.5 (≈ 1.14 µM)	2.5 (≈ 5.7 µM)	0.4 (≈ 0.912 µM)	5.8 (≈ 13.2 µM)
